Results as given in US9108960B2 (priority 2011, dated 2015).
≈ marks a conversion by molar mass, not a printed value.

What was measured:
[1] = system: M. tuberculosis H37Rv; assay: Antimycobacterial assay, MIC by broth microdilution / Nitrate Reductase Assay; format: cell-based; details: Mycobacterium tuberculosis, exposure period 3-4 days
[2] = system: M. tuberculosis Rif^R; assay: as above; format: cell-based; details: Mycobacterium tuberculosis, read-out: MIC M. tuberculosis Rif^R
[3] = system: M. tuberculosis XDR-1; assay: as above; format: cell-based; details: Mycobacterium tuberculosis, XDR1, read-out: MIC M. tuberculosis XDR-1
[4] = system: M. tuberculosis H37Rv; details: literature values (footnote *); cited from earlier work

Row | Compound | MIC [1] [µg/mL] | MIC [2] [µg/mL] | MIC [3] [µg/mL] | MIC M. tuberculosis H37Rv [4] [µg/mL]
1 | O=C(Nc1ccc(N2CCC(c3n[nH]c(=O)o3)CC2)cc1)c1ccc([N+](=O)[O-])o1 [Compound 8a, N2-4-[4-(5-Oxo-4,5-dihydro-1,3,4-oxadiazol-2-yl)piperidino]phenyl-5-nitro-2-furamide] | 1 (≈ 2.5 µM) | 1 (≈ 2.5 µM) | 4 (≈ 10 µM) | –
2 | CCn1nc(C2CCN(c3ccc(NC(=O)c4ccc([N+](=O)[O-])o4)cc3)CC2)oc1=O [Compound 8c, N2-4-[4-(4-Ethyl-5-oxo-4,5-dihydro-1,3,4-oxadiazol-2-yl)piperidino]phenyl-5-nitro-2-furamide] | 1 (≈ 2.34 µM) | 2 (≈ 4.68 µM) | 4 (≈ 9.36 µM) | –
3 | O=C(Nc1ccc(N2CCC(c3n[nH]c(=O)o3)CC2)c(F)c1)c1ccc([N+](=O)[O-])o1 [Compound 8e, N2-3-Fluoro-4-[4-(5-oxo-4,5-dihydro-1,3,4-oxadiazol-2-yl)piperidino]phenyl-5-nitro-2-furamide] | 2 (≈ 4.79 µM) | 2 (≈ 4.79 µM) | 8 (≈ 19.2 µM) | –
4 | Cn1nc(C2CCN(c3ccc(NC(=O)c4ccc([N+](=O)[O-])o4)cc3F)CC2)oc1=O [Compound 8f, N2-3-Fluoro-4-[4-(4-methyl-5-oxo-4,5-dihydro-1,3,4-oxadiazol-2-yl)piperidino]phenyl-5-nitro-2-furamide] | 1 (≈ 2.32 µM) | 2 (≈ 4.64 µM) | 4 (≈ 9.27 µM) | –
5 | CCn1nc(C2CCN(c3ccc(NC(=O)c4ccc([N+](=O)[O-])o4)cc3F)CC2)oc1=O [Compound 8g, N2-4-[4-(4-Ethyl-5-oxo-4,5-dihydro-1,3,4-oxadiazol-2-yl)piperidino]-3-fluorophenyl-5-nitro-2-furamide] | 0.5 (≈ 1.12 µM) | 1 (≈ 2.25 µM) | 2 (≈ 4.49 µM) | –
6 | O=c1[nH]nc(C2CCN(c3ccc(/N=C/c4ccc([N+](=O)[O-])o4)cc3)CC2)o1 [Compound 9a, 5-[1-(4-[(E)-1-(5-Nitro-2-furyl)methylidene]aminophenyl)-4-piperidyl]-2,3-dihydro-1,3,4-oxadiazol-2-one] | 2 (≈ 5.22 µM) | 4 (≈ 10.4 µM) | 4 (≈ 10.4 µM) | –
7 | Cn1nc(C2CCN(c3ccc(/N=C/c4ccc([N+](=O)[O-])o4)cc3)CC2)oc1=O [Compound 9b, 3-Methyl-5-[1-(4-[(E)-1-(5-nitro-2-furyl)methylidene]aminophenyl)-4-piperidyl]-2,3-dihydro-1,3,4-oxadiazol-2-one] | 2 (≈ 5.03 µM) | 4 (≈ 10.1 µM) | 8 (≈ 20.1 µM) | –
8 | CCn1nc(C2CCN(c3ccc(/N=C/c4ccc([N+](=O)[O-])o4)cc3)CC2)oc1=O [Compound 9c, 3-Ethyl-5-[1-(4-[(E)-1-(5-nitro-2-furyl)methylidene]aminophenyl)-4-piperidyl]-2,3-dihydro-1,3,4-oxadiazol-2-one] | 1 (≈ 2.43 µM) | 2 (≈ 4.86 µM) | 4 (≈ 9.72 µM) | –
9 | O=c1oc(C2CCN(c3ccc(/N=C/c4ccc([N+](=O)[O-])o4)cc3)CC2)nn1Cc1ccccc1 [Compound 9d, 3-Benzyl-5-[1-(4-[(E)-1-(5-nitro-2-furyl)methylidene]aminophenyl)-4-piperidyl]-2,3-dihydro-1,3,4-oxadiazol-2-one] | 2 (≈ 4.22 µM) | 4 (≈ 8.45 µM) | 8 (≈ 16.9 µM) | –
10 | O=c1[nH]nc(C2CCN(c3ccc(/N=C/c4ccc([N+](=O)[O-])o4)cc3F)CC2)o1 [Compound 9e, 5-[1-(2-Fluoro-4-[(E)-1-(5-nitro-2-furyl)methylidene]aminophenyl)-4-piperidyl]-2,3-dihydro-1,3,4-oxadiazol-2-one] | 2 (≈ 4.98 µM) | 2 (≈ 4.98 µM) | 8 (≈ 19.9 µM) | –
11 | Cn1nc(C2CCN(c3ccc(/N=C/c4ccc([N+](=O)[O-])o4)cc3F)CC2)oc1=O [Compound 9f, 5-[1-(2-Fluoro-4-[(E)-1-(5-nitro-2-furyl)methylidene]aminophenyl)-4-piperidyl]-3-methyl-2,3-dihydro-1,3,4-oxadiazol-2-one] | 2 (≈ 4.81 µM) | 4 (≈ 9.63 µM) | 8 (≈ 19.3 µM) | –
12 | CCn1nc(C2CCN(c3ccc(/N=C/c4ccc([N+](=O)[O-])o4)cc3F)CC2)oc1=O [Compound 9g, 3-Ethyl-5-[1-(2-fluoro-4-[(E)-1-(5-nitro-2-furyl)methylidene]aminophenyl)-4-piperidyl]-2,3-dihydro-1,3,4-oxadiazol-2-one] | 1 (≈ 2.33 µM) | 2 (≈ 4.66 µM) | 4 (≈ 9.32 µM) | –
13 | O=c1oc(C2CCN(c3ccc(/N=C/c4ccc([N+](=O)[O-])o4)cc3F)CC2)nn1Cc1ccccc1 [Compound 9h, 3-Benzyl-5-[1-(2-fluoro-4-[(E)-1-(5-nitro-2-furyl)methylidene]aminophenyl)-4-piperidyl]-2,3-dihydro-1,3,4-oxadiazol-2-one] | 2 (≈ 4.07 µM) | 2 (≈ 4.07 µM) | 8 (≈ 16.3 µM) | –
14 | O=c1[nH]nc(C2CCN(c3ccc(NCc4ccc([N+](=O)[O-])o4)cc3)CC2)o1 [Compound 10a, 5-[1-(4-[(5-Nitro-2-furyl)methyl]aminophenyl)-4-piperidyl]-2,3-dihydro-1,3,4-oxadiazol-2-one] | 1 (≈ 2.59 µM) | 4 (≈ 10.4 µM) | 4 (≈ 10.4 µM) | –
15 | Cn1nc(C2CCN(c3ccc(NCc4ccc([N+](=O)[O-])o4)cc3)CC2)oc1=O [Compound 10b, 3-Methyl-5-[1-(4-[(5-nitro-2-furyl)methyl]aminophenyl)-4-piperidyl]-2,3-dihydro-1,3,4-oxadiazol-2-one] | 2 (≈ 5.01 µM) | 4 (≈ 10 µM) | 8 (≈ 20 µM) | –
16 | CCn1nc(C2CCN(c3ccc(NCc4ccc([N+](=O)[O-])o4)cc3)CC2)oc1=O [Compound 10c, 3-Ethyl-5-[1-(4-[(5-nitro-2-furyl)methyl]aminophenyl)-4-piperidyl]-2,3-dihydro-1,3,4-oxadiazol-2-one] | 1 (≈ 2.42 µM) | 1 (≈ 2.42 µM) | 4 (≈ 9.68 µM) | –
17 | O=c1oc(C2CCN(c3ccc(NCc4ccc([N+](=O)[O-])o4)cc3)CC2)nn1Cc1ccccc1 [Compound 10d, 3-Benzyl-5-[1-(4-[(5-nitro-2-furyl)methyl]aminophenyl)-4-piperidyl]-2,3-dihydro-1,3,4-oxadiazol-2-one] | 2 (≈ 4.21 µM) | 2 (≈ 4.21 µM) | 8 (≈ 16.8 µM) | –
18 | O=c1[nH]nc(C2CCN(c3ccc(NCc4ccc([N+](=O)[O-])o4)cc3F)CC2)o1 [Compound 10e, 5-[1-(2-Fluoro-4-[(5-nitro-2-furyl)methyl]aminophenyl)-4-piperidyl]-2,3-dihydro-1,3,4-oxadiazol-2-one] | 2 (≈ 4.96 µM) | 2 (≈ 4.96 µM) | 8 (≈ 19.8 µM) | –
19 | Cn1nc(C2CCN(c3ccc(NCc4ccc([N+](=O)[O-])o4)cc3F)CC2)oc1=O [Compound 10f, 5-[1-(2-Fluoro-4-[(5-nitro-2-furyl)methyl]aminophenyl)-4-piperidyl]-3-methyl-2,3-dihydro-1,3,4-oxadiazol-2-one] | 4 (≈ 9.58 µM) | 8 (≈ 19.2 µM) | 16 (≈ 38.3 µM) | –
20 | CCn1nc(C2CCN(c3ccc(NCc4ccc([N+](=O)[O-])o4)cc3F)CC2)oc1=O [Compound 10g, 3-Ethyl-5-[1-(2-fluoro-4-[(5-nitro-2-furyl)methyl]aminophenyl)-4-piperidyl]-2,3-dihydro-1,3,4-oxadiazol-2-one] | 2 (≈ 4.64 µM) | 4 (≈ 9.27 µM) | 4 (≈ 9.27 µM) | –
21 | O=c1oc(C2CCN(c3ccc(NCc4ccc([N+](=O)[O-])o4)cc3F)CC2)nn1Cc1ccccc1 [Compound 10h, 3-Benzyl-5-[1-(2-fluoro-4-[(5-nitro-2-furyl)methyl]aminophenyl)-4-piperidyl]-2,3-dihydro-1,3,4-oxadiazol-2-one] | 2 (≈ 4.05 µM) | 4 (≈ 8.11 µM) | 8 (≈ 16.2 µM) | –
22 | O=C(Nc1cccc(F)c1)c1ccc([N+](=O)[O-])o1 [Compound 11a, N2-(3-fluorophenyl)-5-nitro-2-furamide] | – | – | – | 0.12 (≈ 0.48 µM)
23 | O=C(Nc1ccncc1)c1ccc([N+](=O)[O-])o1 [Compound 11b, N2-(4-pyridyl)-5-nitro-2-furamide] | – | – | – | 0.8 (≈ 3.43 µM)
24 | O=C(Nc1ccc(N2CCC(Cc3ccccc3)CC2)cc1)c1ccc([N+](=O)[O-])o1 [Compound 11c, N2-[4-(4-benzylpiperidino)phenyl]-5-nitro-2-furamide] | – | – | – | 3.12 (≈ 7.7 µM)
25 | CC1CCCN(Cn2nc(-c3ccncc3)oc2=O)C1 (stereo not shown) [Compound 12a, 3-[(3-methylpiperidino)methyl]-5-(4-pyridyl)-2,3-dihydro-1,3,4-oxadiazol-2-one] | – | – | – | 3.13 (≈ 11.4 µM)
26 | CN1CCN(Cn2nc(-c3ccncc3)oc2=O)CC1 [Compound 12b, 3-[(4-methylpiperazino)methyl]-5-(4-pyridyl)-2,3-dihydro-1,3,4-oxadiazol-2-one] | – | – | – | 1.25 (≈ 4.54 µM)
27 | O=c1oc(-c2ccncc2)nn1CN1CCC(Cc2ccccc2)CC1 [Compound 12c, 3-[(4-benzylpiperidino)methyl]-5-(4-pyridyl)-2,3-dihydro-1,3,4-oxadiazol-2-one] | – | – | – | 2.5 (≈ 7.13 µM)
28 | NNC(=O)c1ccncc1 [Isoniazid, reference compound] | 2.5 (≈ 18.2 µM) | – | – | –
29 | CO[C@H]1/C=C/O[C@@]2(C)Oc3c(C)c(O)c4c(O)c(c(/C=N/N5CCN(C)CC5)c(O)c4c3C2=O)NC(=O)/C(C)=C\C=C\[C@H](C)[C@H](O)[C@@H](C)[C@@H](O)[C@@H](C)[C@H](OC(C)=O)[C@@H]1C [Rifampicin, reference compound] | 0.5 (≈ 0.608 µM) | > 128 | 2 (≈ 2.43 µM) | –
